Measured values published in patent US20240018123A1, “COMPOUND FOR INHIBITING OR DISINTEGRATING ANDROGEN RECEPTOR, AND PHARMACEUTICAL USE THEREOF” (KOREA RESEARCH INSTITUTE OF CHEMICAL TECHNOLOGY, priority 2020, published 2024).
Read-outs that look alike come from different tables or passages of the source.

What was measured:
LNCaP cells = assay: Cytotoxicity assessment (Cell-titer-glo cell viability), LNCaP
VCaP cells = assay: Cytotoxicity assessment (Cell-titer-glo cell viability), VCaP
Androgen receptor (AR) = molecular target: T1, Androgen receptor (AR) (Homo sapiens, UniProt P10275, T878A); assay: Assessment of AR proteolytic activity (Western blotting of LNCap cell lysates); format: cell-based; conditions: 24 hours of treatment, Western blotting quantified with Image J; for remaining activity at 1 µM: read-out: Degradation (1 μM treated in LNCaP, % AR remaining)
T1 construct: 5.5×10^5 LNCap cells were injected into each well of a 6-well plate; endogenous in cells; host or cells: LNCaP
T1 sequence (P10275 1-920 T878A): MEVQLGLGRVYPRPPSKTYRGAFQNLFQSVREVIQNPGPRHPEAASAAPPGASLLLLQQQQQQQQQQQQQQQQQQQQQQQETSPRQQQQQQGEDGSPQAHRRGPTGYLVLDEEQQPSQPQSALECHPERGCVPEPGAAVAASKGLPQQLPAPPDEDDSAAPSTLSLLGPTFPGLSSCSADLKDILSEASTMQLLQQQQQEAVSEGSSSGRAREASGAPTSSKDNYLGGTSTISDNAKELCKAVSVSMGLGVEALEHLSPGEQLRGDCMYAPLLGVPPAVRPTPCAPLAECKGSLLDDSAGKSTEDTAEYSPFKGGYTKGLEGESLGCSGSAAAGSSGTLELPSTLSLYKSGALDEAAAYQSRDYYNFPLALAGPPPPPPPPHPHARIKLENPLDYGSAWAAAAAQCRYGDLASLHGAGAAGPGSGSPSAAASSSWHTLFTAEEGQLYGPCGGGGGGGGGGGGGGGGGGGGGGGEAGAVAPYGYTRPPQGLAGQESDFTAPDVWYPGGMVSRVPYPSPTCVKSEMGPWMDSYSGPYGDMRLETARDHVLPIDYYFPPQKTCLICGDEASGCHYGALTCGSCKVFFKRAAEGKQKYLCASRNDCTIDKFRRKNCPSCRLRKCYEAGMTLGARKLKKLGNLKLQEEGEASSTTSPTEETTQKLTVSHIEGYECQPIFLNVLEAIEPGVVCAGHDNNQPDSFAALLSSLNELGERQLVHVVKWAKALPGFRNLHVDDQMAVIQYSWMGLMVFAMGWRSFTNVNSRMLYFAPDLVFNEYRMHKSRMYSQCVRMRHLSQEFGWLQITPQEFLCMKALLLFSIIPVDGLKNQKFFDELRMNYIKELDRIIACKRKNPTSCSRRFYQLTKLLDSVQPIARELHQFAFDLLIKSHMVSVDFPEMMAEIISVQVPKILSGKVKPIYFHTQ
Method in brief: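 AR degradation read by Western blot densitometry on RIPA lysates (pH 7.5, protease inhibitor cocktail). Lysates came from LNCap cells, 5.5×10^5 per well, exposed to compound for 24 hours.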

[1] = read-out: LNCAP (CC50), LNCaP cells, 6 days of treatment, Cell-titer-glo, vs DMSO
[2] = read-out: VCaP (CC50), VCaP cells, 6 days of treatment, Cell-titer-glo, vs DMSO
[3] = Homo sapiens, LNCaP, 144 h, read-out: LNCAP (CC50, μM)
[4] = Homo sapiens, VCaP, 144 h, read-out: VCaP (CC50, μM)

| remaining activity at 1 µM (Androgen receptor (AR)) [%] | Molecule | CC50 (LNCaP cells; [1]) [µM] | CC50 (VCaP cells; [2]) [µM] | Degradation (1 μM treated in LNCaP, % AR remaining) (Androgen receptor (AR)) [%] | CC50 (LNCaP cells; [3]) [µM] | CC50 (VCaP cells; [4]) [µM] |
| --- | --- | --- | --- | --- | --- | --- |
|  | N-((1r,3r)-3-(3-chloro-4-cyanophenoxy)-2,2,4,4-tetramethylcyclobutyl)-4-(4-(2-((1-(1-(3-(2,6-dioxopiperidin-3-yl)-4-oxo-3,4-dihydrobenzo[d][1,2,3]triazin-6-yl)azetidine-3-carbonyl)piperidin-4-yl)oxy)ethyl)piperazin-1-yl)benzamide [Example 33] | 0.762 | 0.057 | 14 |  |  |
|  | CC1(C)[C@H](NC(=O)c2ccc(N3CCN(CCC4CCN(C(=O)C5CCN(c6ccc7nnn(C8CCC(=O)NC8=O)c(=O)c7c6)CC5)CC4)CC3)cc2)C(C)(C)[C@H]1Oc1ccc(C#N)c(Cl)c1 (stereo partly drawn) [Example 26, N-((1r,3r)-3-(3-chloro-4-cyanophenoxy)-2,2,4,4-tetramethylcyclobutyl)-4-(4-(2-(1-(1-(3-(2,6-dioxopiperidin-3-yl)-4-oxo-3,4-dihydrobenzo[d][1,2,3]triazin-6-yl)piperidine-4-carbonyl)piperidin-4-yl)ethyl)piperazin-1-yl)benzamide] | 0.361 | 0.0516 | 7 |  |  |
| 8.1 | CC1(C)[C@H](NC(=O)c2ccc(N3CCN(CC4CCN(c5ccc6nnn(C7CCC(=O)NC7=O)c(=O)c6c5)CC4)CC3)cc2)C(C)(C)[C@H]1Oc1ccc(C#N)c(Cl)c1 (stereo partly drawn) [Example 8, N-((1r,3r)-3-(3-chloro-4-cyanophenoxy)-2,2,4,4-tetramethylcyclobutyl)-4-(4-((1-(3-(2,6-dioxopiperidin-3-yl)-4-oxo-3,4-dihydrobenzo[d][1,2,3]triazin-6-yl)piperidin-4-yl)methyl)piperazin-1-yl)benzamide] |  |  |  | 0.163 | 0.685 |
|  | N-((1r,3r)-3-(3-chloro-4-cyanophenoxy)-2,2,4,4-tetramethylcyclobutyl)-4-(4-(2-((1-(1-(3-(2,6-dioxopiperidin-3-yl)-4-oxo-3,4-dihydrobenzo[d][1,2,3]triazin-6-yl)piperidine-4-carbonyl piperidin-4-yl)oxy)ethyl)piperazin-1-yl)benzamide [Example 30] | 0.847 | 0.08 | 4 |  |  |
| 5 | CC1(C)[C@H](NC(=O)c2ccc(N3CCN(CCOC4CCN(C(=O)CNc5ccc6nnn(C7CCC(=O)NC7=O)c(=O)c6c5)CC4)CC3)cc2)C(C)(C)[C@H]1Oc1ccc(C#N)c(Cl)c1 (stereo partly drawn) [Example 31, N-((1r,3r)-3-(3-chloro-4-cyanophenoxy)-2,2,4,4-tetramethylcyclobutyl)-4-(4-(2-((1-((3-(2,6-dioxopiperidin-3-yl)-4-oxo-3,4-dihydrobenzo[d][1,2,3]triazin-6-yl)glycyl)piperidin-4-yl)oxy)ethyl)piperazin-1-yl)benzamide] |  |  |  | 0.852 | 0.0571 |
|  | CC1(C)C(NC(=O)c2ccc(-n3cc(C4CCN(C(=O)C5CCN(c6ccc7nnn(C8CCC(=O)NC8=O)c(=O)c7c6)CC5)CC4)nn3)cc2)C(C)(C)C1Oc1ccc(C#N)c(Cl)c1 (stereo not drawn) [Example 102, N-((1r,3r)-3-(3-chloro-4-cyanophenoxy)-2,2,4,4-tetramethylcyclobutyl)-4-(4-(1-(1-(3-(2,6-dioxopiperidin-3-yl)-4-oxo-3,4-dihydrobenzo[d][1,2,3]triazin-6-yl)piperidine-4-carbonyl)piperidin-4-yl)-1H-1,2,3-triazol-1-yl)benzamide] | 0.0158 | 0.00588 |  |  |  |
|  | CC1(C)C(NC(=O)c2ccc(CCN3CCN(CC4CCN(c5ccc6nnn(C7CCC(=O)NC7=O)c(=O)c6c5)CC4)CC3)cc2)C(C)(C)C1Oc1ccc(C#N)c(Cl)c1 (stereo not drawn) [Example 111, N-((1r,3r)-3-(3-chloro-4-cyanophenoxy)-2,2,4,4-tetramethylcyclobutyl)-4-(2-(4-((1-(3-(2,6-dioxopiperidin-3-yl)-4-oxo-3,4-dihydrobenzo[d][1,2,3]triazin-6-yl)piperidin-4-yl)methyl)piperazin-1-yl)ethyl)benzamide] | 0.0372 | 0.00229 |  |  |  |
| 11 | CC1(C)[C@H](NC(=O)c2ccc(N3CCN(CCOC4CCN(c5ccc6nnn(C7CCC(=O)NC7=O)c(=O)c6c5)CC4)CC3)cc2)C(C)(C)[C@H]1Oc1ccc(C#N)c(Cl)c1 (stereo partly drawn) [Example 34, N-((1r,3r)-3-(3-chloro-4-cyanophenoxy)-2,2,4,4-tetramethylcyclobutyl)-4-(4-(2-((1-(3-(2,6-dioxopiperidin-3-yl)-4-oxo-3,4-dihydrobenzo[d][1,2,3]triazin-6-yl)piperidin-4-yl)oxy)ethyl)piperazin-1-yl)benzamide] |  |  |  | 0.523 | 0.0702 |
|  | CC1(C)[C@H](NC(=O)c2ccc(N3CCN(C4CC5(CCN(C(=O)C6CCN(c7ccc8nnn(C9CCC(=O)NC9=O)c(=O)c8c7)CC6)CC5)C4)CC3)cc2)C(C)(C)[C@H]1Oc1ccc(C#N)c(Cl)c1 (stereo partly drawn) [Example 20, N-((1r,3r)-3-(3-chloro-4-cyanophenoxy)-2,2,4,4-tetramethylcyclobutyl)-4-(4-(7-(1-(3-(2,6-dioxopiperidin-3-yl)-4-oxo-3,4-dihydrobenzo[d][1,2,3]triazin-6-yl)piperidine-4-carbonyl)-7-azaspiro[3.5]nonan-2-yl)piperazin-1-yl)benzamide] | 0.178 | 0.0542 | 26 |  |  |
|  | CC1(C)C(NC(=O)c2ccc(C#CCC3CCN(CC4CCN(C(=O)C5CN(c6ccc7nnn(C8CCC(=O)NC8=O)c(=O)c7c6)C5)CC4)CC3)cc2)C(C)(C)C1Oc1ccc(C#N)c(Cl)c1 (stereo not drawn) [Example 117, N-((1r,3r)-3-(3-chloro-4-cyanophenoxy)-2,2,4,4-tetramethylcyclobutyl)-4-(3-(1-((1-(1-(3-(2,6-dioxopiperidin-3-yl)-4-oxo-3,4-dihydrobenzo[d][1,2,3]triazin-6-yl)azetidine-3-carbonyl)piperidin-4-yl)methyl)piperidin-4-yl)prop-1-yn-1-yl)benzamide] | 0.166 | 0.013 |  |  |  |
|  | CC1(C)C(NC(=O)c2ccc(-c3cnn(C4CCN(CC5CCN(c6ccc7nnn(C8CCC(=O)NC8=O)c(=O)c7c6)CC5)CC4)c3)nc2)C(C)(C)C1Oc1ccc(C#N)c(Cl)c1 (stereo not drawn) [Example 115, N-((1r,3r)-3-(3-chloro-4-cyanophenoxy)-2,2,4,4-tetramethylcyclobutyl)-6-(1-(1-((1-(3-(2,6-dioxopiperidin-3-yl)-4-oxo-3,4-dihydrobenzo[d][1,2,3]triazin-6-yl)piperidin-4-yl)methyl)piperidin-4-yl)-1H-pyrazol-4-yl)nicotinamide] | 0.182 | 0.038 |  |  |  |
|  | CC1(C)C(NC(=O)c2ccc(C#CC3CCN(CC4CCN(C(=O)C5CCN(c6ccc7nnn(C8CCC(=O)NC8=O)c(=O)c7c6)CC5)CC4)CC3)cc2)C(C)(C)C1Oc1ccc(C#N)c(Cl)c1 (stereo not drawn) [Example 97, N-((1r,3r)-3-(3-chloro-4-cyanophenoxy)-2,2,4,4-tetramethylcyclobutyl)-4-((1-((1-(1-(3-(2,6-dioxopiperidin-3-yl)-4-oxo-3,4-dihydrobenzo[d][1,2,3]triazin-6-yl)piperidine-4-carbonyl)piperidin-4-yl)methyl)piperidin-4-yl)ethynyl)benzamide] | 0.0767 | 0.00208 |  |  |  |
|  | CC1(C)C(NC(=O)c2ccc(-n3cc(C4CCN(C(=O)CNc5ccc6nnn(C7CCC(=O)NC7=O)c(=O)c6c5)CC4)nn3)cc2)C(C)(C)C1Oc1ccc(C#N)c(Cl)c1 (stereo not drawn) [Example 107, N-((1r,3r)-3-(3-chloro-4-cyanophenoxy)-2,2,4,4-tetramethylcyclobutyl)-4-(4-(1-((3-(2,6-dioxopiperidin-3-yl)-4-oxo-3,4-dihydrobenzo[d][1,2,3]triazin-6-yl)glycyl)piperidin-4-yl)-1H-1,2,3-triazol-1-yl)benzamide] | 0.0899 | 0.00359 |  |  |  |
